Test results reported in article PMC9934914, “A novel class of sulphonamides potently block malaria transmission by targeting a Plasmodium vacuole membrane protein” (Disease Models & Mechanisms, 2023).

Legend:
[1] = target: T1, Pfs16 (Plasmodium falciparum, UniProt Q6ZMA7); test: photoaffinity labelling of live gametocytes, pulldown, TMT LC-MS/MS and immunoblot; assay type: cell-based; conditions: covalent (aryl azide photo-crosslink, 254 nm); 2.5 to 10 µM probe, 37 °C
T1 construct: native full-length protein in stage V gametocytes or their Triton X-100 lysate; 157 residues, 16 kDa, one TM domain
T1 sequence (Q6ZMA7 26-157): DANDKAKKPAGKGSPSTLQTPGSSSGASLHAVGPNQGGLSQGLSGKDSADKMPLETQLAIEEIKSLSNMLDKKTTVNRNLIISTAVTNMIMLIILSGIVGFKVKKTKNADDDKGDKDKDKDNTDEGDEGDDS

[2] = target: T1, Pfs16; test: CETSA melt curve with immunoblot; assay type: biochemical; conditions: 100 µM compound

**Q.** With `C#Cc1ccc2c(c1)C(O)(CNS(=O)(=O)c1cccc(N=[N+]=[N-])c1)CCO2` (stereo not drawn) [compound 2, probe 2] as the molecule, how does the “photoaffinity labelling of live gametocytes, pulldown, TMT LC-MS/MS and immunobl” value [1] read?
**A.** a dose-dependent pulldown of Pfs16 was clearly observed

**Q.** Which Tm shift ([2]; pH 7.5, stage V gametocyte lysate) does the source give for `O=S(=O)(NCC1(O)CCOc2ccccc21)c1cccc(Br)c1` (single isomer, unassigned; (-)) [(−)-DDD01028076] here?
**A.** A shift in the Pfs16 melting curve was also evident in the presence of (−)-DDD01028076

**Q.** With `O=S(=O)(NCC1(O)CCOc2ccccc21)c1ccc(Br)s1` (stereo not drawn) [DDD01035881] as the molecule, how does the Tm shift ([2]; pH 7.5, activated stage V gametocyte lysate, also isothermal dose response at 78.4 °C, 1 nM to 100 µM) read?
**A.** DDD01035881 treatment clearly resulted in a positive shift in the Pfs16 melting curve
